# According to US8329195B2, “Detoxified pneumococcal neuraminidase and uses thereof” (priority 2007, dated 2012):
# Tests used:
# PAF-R = PAF-R (Homo sapiens, UniProt P25105); conditions: cited from earlier work
# TIGR4 strain = assay: Attachment of TIGR4 strain to ganglioside-coated ELISA plates; type: binding, Streptococcus pneumoniae; conditions: short-term incubation with the TIGR4 strain
# Method: The ability of the TIGR4, and its nanA and nanB mutants to bind to specific gangliosides is measured. The gangliosides used include mixed gangliosides, asialo-GM1, GM1, GD1a, GD1b, GT1 (Calbiochem) and the GM3 ganglioside (Sigma) The GM3 ganglioside lacks the terminal or internal GalNAcβ1-4Gal sequence involved in pneumococcal binding and is used as a negative control. These mixed, mono-, di- or tri-sialic acid containing gangliosides bind readily to ELISA plates. […] Using ganglioside-coated plates, the ability to attach to these plates by wildtype TIGR4 strain, the stable opaque and transparent phase variants of the TIGR4 strain, the nanA, nanB, and nanA/nanB mutant strains is compared. These analyses include short-term incubation (1 hr) and extended incubations (24 hrs) on ganglioside-coated plates, Attached pneumococci are removed from the ganglioside plates by short incubation (10-15 min.) in Todd Hewitt medium containing 0.5% yeast extract followed by repeated pipetting and plating the released bacteria on blood agar plates. Alternatively 41° C. Todd Hewitt broth agar containing 0.5% yeast extract is poured on top of the attached pneumococci and the colonies are counted through the bottom of the plate. Controls include plates with no pneumococci and plates with no gangliosides but with pneumococci.
# [1] = Matsubura et al. 1999; cited from earlier work
# [2] = tested on: S. pneumoniae strain EF3030; assay: GLS preincubation of S. pneumoniae strain EF3030 before nasal application to xid mice, CFU in tissues; type: in vivo, Streptococcus pneumoniae; conditions: four days after nasal application
# Method: Aliquots (3×10^7 CFUs) of S. pneumoniae were incubated for 30 minutes with 20 μg asialo-GM1 (a-GM1) or 125 μg of mixed GLSs (MG) prior to nasal application. The ON/E, OBs, brain and NW, NALT and lungs were collected four days later and analyzed for numbers of S. pneumoniae. The 0 value on the Y-axis represents the absence of detectable CFUs. Indicated are the mean+one SE of 5 mice and the P-values were obtained following statistical analysis with the Student's t-test or the Mann-Whitney two sample rank test, as appropriate for the data examined. The data are representative of two separate experiments.
# Eight serial, three-fold dilutions were made of tissues and body fluids in sterile Ringer's solution and plated on blood agar plates containing […] gentamicin sulfate. The CFU were enumerated 24 hr after plating and incubation in a candle jar. The results were expressed as CFUs/organ, per NW or per ml of blood.
# To block GLS binding sites, 3×10^7 CFU of S. pneumoniae strain EF3030 were incubated for 30 min on ice with either 20 μg asialo-GM1 from human brain or 125 μg of mixed GLSs (18% GM1, 55% GD1a, 15% GD1b, 10% GT1b, 2% other GLSs) from bovine brain (Calbiochem-Novabiochem Corporation, Inc., La Jolla, Calif.). GLSs were dissolved in PBS and extensively mixed a day prior to use. […] Tissues were analyzed for CPUs four days later.
# Chain of PAF-R (P25105 whole entry, species assumed): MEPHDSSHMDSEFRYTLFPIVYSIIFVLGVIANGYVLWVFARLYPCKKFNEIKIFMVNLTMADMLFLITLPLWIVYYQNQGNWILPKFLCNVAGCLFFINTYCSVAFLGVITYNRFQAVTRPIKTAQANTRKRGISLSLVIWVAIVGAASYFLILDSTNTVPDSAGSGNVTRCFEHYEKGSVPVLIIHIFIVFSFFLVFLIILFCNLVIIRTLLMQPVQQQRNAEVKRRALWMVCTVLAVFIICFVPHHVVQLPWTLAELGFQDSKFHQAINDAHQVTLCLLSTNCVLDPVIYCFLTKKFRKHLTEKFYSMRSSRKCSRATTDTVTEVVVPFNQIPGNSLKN
compound,measurement,setting,value
CCCCCCCCOc1ccccc1C(=O)Nc1ccc(C(=O)OCC[N+](C)(CC)CC)cc1 [octylonium bromide],binding to the PAF-R,PAF-R,binds with high affinity
GM1,binding of pneumococci to coated plates,TIGR4 strain,not
GM3 [GM-3],binding of pneumococci to coated plates,TIGR4 strain,not
VWRLLAPPFSNRLLP [GM1-binding peptide],IC50,[1],1 µM
same,affinity for GM1,[1],10^10 M^−1
asialo-GM1,reduced colonization in CNS,[2]; CNS,25 fold
same,reduced colonization in lungs,[2]; lungs,63 fold
same,binding of pneumococci to coated plates,TIGR4 strain,bind and attachment
